Experimental data taken from US20100160370A1, “METHOD OF TREATMENT AND PHARMACEUTICAL COMPOSITIONS” (Gilead Sciences, Inc., priority 2008, published 2010).

Legend:
Assay type in all cases: in vivo
bleomycin rat model = assay: Bleomycin rat model: white blood cell counts in lung lavage; conditions: for Lymphocyte Count (Average) / Macrophage Count (Average) / Neutrophil Count (Average) / Total Cell Count (Average): oral gavage twice a day, lung lavage
Text: The bleomycin rat model was used in this study to evaluate (R)-N-((2S,3S)-2-(fluoromethyl)-2-hydroxy-5-oxo-tetrahydrofuran-3-yl)-5-isopropyl-3-(isoquinolin-1-yl)-4,5-dihydroisoxazole-5-carboxamide as a possible therapeutic drug for the treatment of idiopathic pulmonary fibrosis (IPF) and other fibrotic lung diseases. The bleomycin animal model of IPF is an art-recognized model for evaluating potentially therapeutic drugs for the treatment of IPF (see, e.g., F. Chua et al., Pulmonary Fibrosis, Searching for Model Answers, Am. J. Respir. Cell. Mol. Biol., 33:9-13 (2005); A. Moeller et al., The bleomycin animal model: A useful tool to investigate treatment options for idiopathic pulmonary fibrosis, International Journal of Biochemistry and Cell Biology, 40: 362-382 (2008)). In this Example, (R)-N-((2S,3S)-2-(fluoromethyl)-2-hydroxy-5-oxo-tetrahydrofuran-3-yl)-5-isopropyl-3-(isoquinolin-1-yl)-4,5-dihydroisoxazole-5-carboxamide is referred to as the “test compound” for ease of reference. […] The abbreviations used in Table 1 are Bleo (bleomycin), IT (intratracheal), mg/kg (milligram per kilogram), N (number) and n/a (not applicable). [table] The rats receiving the test compound were gavaged twice a day from day zero (the day of bleomycin administration) through the day prior to necropsy. On days 14 and 28 the designated rats were euthanized with a pentobarbital-based solution, the chest cavity was opened and examined for gross pathology. The right lung was removed, canulated, and lavaged for determination of white blood cell counts. The lavaged tissue was flash frozen and analyzed for collagen content by measuring the amount of collagen. The left lung was fixed for histopathology. Homogenates from the lungs were analyzed for cytokines. Intratracheal administration of bleomycin induces a two-stage response in the lungs of rats. The first stage is an inflammatory response which peaks at about 14 days after bleomycin administration, and the second stage is a fibrotic response that is apparent by 28 days after bleomycin administration. The inflammation markers that were measured in this study were the influx of leukocytes (neutrophils, macrophages and lymphocytes) into the airways, and the induction of the cytokines MCP-1 and MCP-3 (where MCP stands for Monocyte Chemoattractant Protein). Tables 2, 3, 4 and 5 show the total cell count, neutrophil count, macrophage count and the lymphocyte count, respectively, from the treated rats at 14 days and 28 days (Values for cell numbers are ×10^6). The abbreviation SEM stands for Standard Error of the Mean. In Tables 2 thru 8 the t-test was an unpaired, two-tailed, t-test performed using a GraphPad Prism version 5.01 for Windows (GraphPad Software, San Diego, Calif. USA).

MCP-1 = assay: Bleomycin rat model: MCP-1 level in bronchoalveolar lavage fluid (Luminex/Procarta cytokine assay); conditions: for MCP-1 concentration (Average): oral gavage twice a day, BAL
Text: (§1) The bleomycin rat model was used in this study to evaluate (R)-N-((2S,3S)-2-(fluoromethyl)-2-hydroxy-5-oxo-tetrahydrofuran-3-yl)-5-isopropyl-3-(isoquinolin-1-yl)-4,5-dihydroisoxazole-5-carboxamide as a possible therapeutic drug for the treatment of idiopathic pulmonary fibrosis (IPF) and other fibrotic lung diseases. The bleomycin animal model of IPF is an art-recognized model for evaluating potentially therapeutic drugs for the treatment of IPF (see, e.g., F. Chua et al., Pulmonary Fibrosis, Searching for Model Answers, Am. J. Respir. Cell. Mol. Biol., 33:9-13 (2005); A. Moeller et al., The bleomycin animal model: A useful tool to investigate treatment options for idiopathic pulmonary fibrosis, International Journal of Biochemistry and Cell Biology, 40: 362-382 (2008)).
(§2) The rats receiving the test compound were gavaged twice a day from day zero (the day of bleomycin administration) through the day prior to necropsy. On days 14 and 28 the designated rats were euthanized with a pentobarbital-based solution, the chest cavity was opened and examined for gross pathology. The right lung was removed, canulated, and lavaged for determination of white blood cell counts. The lavaged tissue was flash frozen and analyzed for collagen content by measuring the amount of collagen. The left lung was fixed for histopathology. Homogenates from the lungs were analyzed for cytokines.
(§3) Intratracheal administration of bleomycin induces a two-stage response in the lungs of rats. The first stage is an inflammatory response which peaks at about 14 days after bleomycin administration, and the second stage is a fibrotic response that is apparent by 28 days after bleomycin administration. The inflammation markers that were measured in this study were the influx of leukocytes (neutrophils, macrophages and lymphocytes) into the airways, and the induction of the cytokines MCP-1 and MCP-3 (where MCP stands for Monocyte Chemoattractant Protein). Tables 2, 3, 4 and 5 show the total cell count, neutrophil count, macrophage count and the lymphocyte count, respectively, from the treated rats at 14 days and 28 days (Values for cell numbers are ×10^6). The abbreviation SEM stands for Standard Error of the Mean. In Tables 2 thru 8 the t-test was an unpaired, two-tailed, t-test performed using a GraphPad Prism version 5.01 for Windows (GraphPad Software, San Diego, Calif. USA).
(§4) Additionally, MCP-1 and MCP-3 levels in the rat Bronchoalveolar Lavage Fluid (BAL) were measured using Luminex xMap Technology CS1000 (Austin, Tex.) and a Procarta Cytokine Assay Kit (rat 15-plex) manufactured by Panomics, Inc. (Fremont, Calif.) that included analytes for: IL-1α, IL-1β, IL-6, TNFα, KC, MCP-1, MCP-3, MIP-1α, RANTES, VEGF, TGFb, IL-4, IL-10, IFNg, and GM-CSF. Three replicate assay wells (n=3) were analyzed for each experimental sample following the manufacturer's instructions. Quantitation of each analyte was determined against standard curves using MiraiBio's (Alameda, Calif.) Masterplex QT v 3.0 software. For all samples, background signals in the absence of BAL were determined and subtracted from signals obtained in the presence of BAL to obtain the net signal. Statistical significance of biological studies was tested with a two-tailed Student t-test. Tables 6 and 7 show the concentrations of cytokines MCP-1 and MCP-3, respectively, in the airways of the treated rats, expressed in pg/mL.

MCP-3 = assay: Bleomycin rat model: MCP-3 level in bronchoalveolar lavage fluid (Luminex/Procarta cytokine assay); conditions: for MCP-3 concentration (Average): oral gavage twice a day, BAL
Text: as §1, §2, §3, §4

collagen = assay: Bleomycin rat model: lung collagen deposition (pepsin digest, SDS-PAGE densitometry); set-up: Collagen Response (Average collagen concentration): unit not given here; conditions: for Collagen Response (Average collagen concentration): oral gavage twice a day, 28 day, lung tissue
Text: The bleomycin rat model was used in this study to evaluate (R)-N-((2S,3S)-2-(fluoromethyl)-2-hydroxy-5-oxo-tetrahydrofuran-3-yl)-5-isopropyl-3-(isoquinolin-1-yl)-4,5-dihydroisoxazole-5-carboxamide as a possible therapeutic drug for the treatment of idiopathic pulmonary fibrosis (IPF) and other fibrotic lung diseases. The bleomycin animal model of IPF is an art-recognized model for evaluating potentially therapeutic drugs for the treatment of IPF (see, e.g., F. Chua et al., Pulmonary Fibrosis, Searching for Model Answers, Am. J. Respir. Cell. Mol. Biol., 33:9-13 (2005); A. Moeller et al., The bleomycin animal model: A useful tool to investigate treatment options for idiopathic pulmonary fibrosis, International Journal of Biochemistry and Cell Biology, 40: 362-382 (2008)). The rats receiving the test compound were gavaged twice a day from day zero (the day of bleomycin administration) through the day prior to necropsy. On days 14 and 28 the designated rats were euthanized with a pentobarbital-based solution, the chest cavity was opened and examined for gross pathology. The right lung was removed, canulated, and lavaged for determination of white blood cell counts. The lavaged tissue was flash frozen and analyzed for collagen content by measuring the amount of collagen. The left lung was fixed for histopathology. Homogenates from the lungs were analyzed for cytokines. […] Gels were then stained with Coomassie Blue and stained bands migrating coincident with type I collagen standards were compared by densitometry to the Coomassie stained collagen standards in order to quantitate collagen content. Under the reducing conditions employed in the analysis, the quantitated lung sample gel bands represented the alpha 1 and 2 chains of type I collagen and the alpha 1 chain of type Ill collagen. Blots were scanned with a BioRad GS-800 Scanner and their density was quantitated using “Quantity One” computer software from BioRad. Results were averaged for each treatment group and expressed as micrograms of collagen/mg of lung tissue.

[1] = Bleomycin IT 3.5 mg/kg + 10 mg/Kg test compound, 14 day
[2] = Bleomycin IT 3.5 mg/kg + 10 mg/Kg test compound, 28 day
[3] = Bleomycin IT 3.5 mg/kg + 30 mg/Kg test compound, 14 day
[4] = Bleomycin IT 3.5 mg/kg + 30 mg/Kg test compound, 28 day
[5] = orally administered, bleomycin-treated rats, result in words
[6] = bleomycin-treated rats, result in words

CC(C)[C@@]1(C(=O)N[C@H]2CC(=O)O[C@]2(O)CF)CC(c2nccc3ccccc23)=NO1 [Test Compound, (R)-N-((2S,3S)-2-(fluoromethyl)-2-hydroxy-5-oxo-tetrahydrofuran-3-yl)-5-isopropyl-3-(isoquinolin-1-yl)-4,5-dihydroisoxazole-5-carboxamide]
Lymphocyte Count (Average) (bleomycin rat model; [1]): 0.002 ×10^6
Macrophage Count (Average) (bleomycin rat model; [1]): 0.415 ×10^6
Neutrophil Count (Average) (bleomycin rat model; [1]): 0.006 ×10^6
Total Cell Count (Average) (bleomycin rat model; [1]): 1.988 ×10^6
Lymphocyte Count (Average) (bleomycin rat model; [2]): 0.007 ×10^6
Macrophage Count (Average) (bleomycin rat model; [2]): 0.442 ×10^6
Neutrophil Count (Average) (bleomycin rat model; [2]): 0.012 ×10^6
Total Cell Count (Average) (bleomycin rat model; [2]): 2.276 ×10^6
Lymphocyte Count (Average) (bleomycin rat model; [3]): 0.003 ×10^6
Macrophage Count (Average) (bleomycin rat model; [3]): 0.285 ×10^6
Neutrophil Count (Average) (bleomycin rat model; [3]): 0.005 ×10^6
Total Cell Count (Average) (bleomycin rat model; [3]): 1.482 ×10^6
Lymphocyte Count (Average) (bleomycin rat model; [4]): 0.004 ×10^6
Macrophage Count (Average) (bleomycin rat model; [4]): 0.476 ×10^6
Neutrophil Count (Average) (bleomycin rat model; [4]): 0.008 ×10^6
Total Cell Count (Average) (bleomycin rat model; [4]): 2.207 ×10^6
influx of lymphocytes into the airways (bleomycin rat model; [5]): inhibited the influx
influx of macrophages into the airways (bleomycin rat model; [5]): inhibited the influx
influx of neutrophils into the airways (bleomycin rat model; [5]): inhibited the influx
MCP-1 concentration (Average) (MCP-1; [1]): 66.122 pg/mL
MCP-1 concentration (Average) (MCP-1; [2]): 12.800 pg/mL
MCP-1 concentration (Average) (MCP-1; [3]): 13.838 pg/mL
MCP-1 concentration (Average) (MCP-1; [4]): 11.844 pg/mL
production of MCP-1 in the lungs (MCP-1; [6]): inhibited the production
MCP-3 concentration (Average) (MCP-3; [1]): 37.987 pg/mL
MCP-3 concentration (Average) (MCP-3; [2]): 7.075 pg/mL
MCP-3 concentration (Average) (MCP-3; [3]): 5.668 pg/mL
MCP-3 concentration (Average) (MCP-3; [4]): 6.497 pg/mL
production of MCP-3 in the lungs (MCP-3; [6]): inhibited the production
Collagen Response (Average collagen concentration) (collagen; Bleomycin IT 3.5 mg/kg + 10 mg/Kg test compound): 2.353
Collagen Response (Average collagen concentration) (collagen; Bleomycin IT 3.5 mg/kg + 30 mg/Kg test compound): 3.891
deposition of collagen during the fibrotic phase of the bleomycin response (collagen; [5]): inhibited the deposition of collagen
